# Laboratory results published in US11766447B2, “3′3′-cyclic dinucleotide analogue comprising a cyclopentanyl modified nucleotide as sting modulator” (INSTITUTE OF ORGANIC CHEMISTRY AND BIOCHEMISTRY ASCR, V.V.I., priority 2019, dated 2023).
# Like-named read-outs stand apart in the source and are kept apart here.
# Legend:
# [1] = target: T1, WT STING (Homo sapiens, UniProt Q86WV6, H232R); assay: Digitonin assay using 293T wtSTING-FL reporter cells; type: cell-based; set-up: host or cells: 293T (ATCC CRL-3216), stably transfected, with 4xISRE firefly luciferase reporter; settings: 293T wtSTING-FL cells, ISRE firefly luciferase; compounds in Digitonin buffer 30 minutes, then 5 hours; 8-point curve
# From the text: Two complementary oligonucleotides of the sequence […] […] […] […] […] The oligonucleotides were mixed in equal molar amounts, hybridized, and cleaved by restriction endonucleases HindIII (cat. #. R0104S, NEB, Ipswich, USA) and BglII (cat. #R0144S, NEB, Ipswich, USA). Ultimately, they were ligated into plasmid pGL4.27 (cat. #E6651, Promega, Madison, USA) linearized with the same enzymes. As result the sequence with four ISRE sites was placed upstream of the minimum promoter of firefly luciferase reporter gene.
# After 5 minutes incubation at room temperature (RT), 250 μL of the mixture was added dropwise to the cells in one well. Cells were incubated 36 hours at 37° C. with 5% CO2, and then detached with 0.05% Trypsin and 0.22 g/L EDTA (both cat. #L0941, Biowest, Riverside, USA).
# Transfected cells were seeded onto poly-D-lysine coated six well plates at density 50,000 cells per 1 cm^2 in DMEM medium with high glucose containing 10% heat inactivated FBS, 30 μg/mL blasticidin (cat. #ant-b1-05, InvivoGen, San Diego, USA), 0.06 mg/ml Penicillin G and 0.1 mg/ml Streptomycin Sulfate (both cat. #. L0018, Biowest, Riverside, USA). The medium was replenished every 3-4 days until visible colonies of cells resistant to blasticidin were formed.
# Blasticidin resistant cells stably expressing WT STING were further transfected with […] plasmid following the same procedure as described above. […] Homogeneous culture of stably double transfected cells was prepared by limiting dilution of cells in 96 well plates and wells with cells were selected that originated from a single cell.
# The medium was removed next day and three fold serial dilutions of compounds in Digitonin buffer containing 50 mmol·l^−1 HEPES (cat. #H3375, Sigma Aldrich, Czech Republic) pH 7.0, 100 mmol·l^−1 KCl, 3 mmol·l^−1 MgCl2, 0.1 mmol·l^−1 DTT (cat. #D0632, Sigma Aldrich, Czech Republic), 85 mmol·l^−1 Sucrose (cat. #S7903, Sigma Aldrich, Czech Republic), 0.2% BSA (cat. #A2153, Sigma Aldrich, Czech Republic), 1 mmol·l^−1 ATP (cat. #A1852, Sigma Aldrich, Czech Republic), 0.1 mmol·l^−1 GTP (cat. #G8877, Sigma Aldrich, Czech Republic), and 10 μg/mL Digitonin A (cat. #D141, Sigma Aldrich, Czech Republic) were added to the cells. The buffer was removed after 30 minutes incubation at 37° C. with 5% CO2, the cells were washed once with 100 μl of cultivation medium, and 100 μl of medium was added to each well. The plates with cells were incubated for 5 hours at 37° C. with 5% CO2, 50 μl of the medium was removed and 30 μl of ONE-Glo™ Luciferase Assay System reagent (cat. #E6120, Promega, Madison, USA) was added to each well. Luminescence was read on Synergy H1 (Biotek, Winooski, USA). GraphPad Prism (La Jolla, USA) was used to calculate the 50% effective concentration ([…] from an 8-point dose-response curve.
# Target sequence in this assay (Q86WV6 whole entry H232R): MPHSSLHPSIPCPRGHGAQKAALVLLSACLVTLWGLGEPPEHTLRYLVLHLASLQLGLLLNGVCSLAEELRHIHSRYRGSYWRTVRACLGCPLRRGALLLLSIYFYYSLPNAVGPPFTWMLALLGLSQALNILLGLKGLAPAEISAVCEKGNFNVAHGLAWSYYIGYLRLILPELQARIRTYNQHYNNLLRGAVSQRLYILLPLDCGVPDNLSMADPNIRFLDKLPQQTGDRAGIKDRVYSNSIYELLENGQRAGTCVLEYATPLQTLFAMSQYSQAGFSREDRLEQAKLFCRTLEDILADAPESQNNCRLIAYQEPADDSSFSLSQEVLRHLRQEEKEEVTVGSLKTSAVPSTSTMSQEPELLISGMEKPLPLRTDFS
# [2] = target: T2, AQ STING (G230A-R293Q) (Homo sapiens, UniProt Q86WV6, G230A/H232R/R293Q); assay: Differential scanning fluorimetry (DSF) with AQ STING; type: binding; settings: thermal shift vs apoprotein; 150 μM CDN; truncated human AQ STING 0.1 mg/ml
# T2 construct: 8xHis (N, cleaved yes); SUMO (N, cleaved yes); made in house; host or cells: E. coli Rosetta-gami B (DE3)
# Experimental: (§1) Purified PCR products were cleaved with restriction enzymes BamHI (cat. #R0136S, NEB, Ipswich, USA) and NotI (cat. #R0189S, NEB, Ipswich, USA) and cloned into the pSUMO vector linearized with the identical enzymes.
# (§2) DNase I (cat. #D5025, Sigma Aldrich, Czech Republic) and RNase A (cat. #R6513, Sigma Aldrich, Czech Republic) were added (final concentration 50 μg/ml) together with MgCl2 (final concentration 5 mmol·l^−1) to the homogenate and bacteria were lysed using French Press G-M™ High-Pressure Cell Press Homogenizer (1500 psi, 3 cycles). […] The resin was poured into a chromatography column, washed with 50 ml buffer A (50 mmol·l^−1 TrisCl (pH 8.0), 800 mmol·l^−1 NaCl, 3 mmol·l^−1 β-mercaptoethanol; 10% glycerol; 20 mmol·l^−1 imidazol) and 8-His-SUMO tagged STING proteins were eluted with 15 ml buffer A containing 300 mmol·l^−1 imidazole. […] Proteins were concentrated with Amicon® Ultra-15 10 K device (cat. #UFC901008, Merck Millipore, Billerica, USA) and flash frozen in liquid N2.
# (§3) 20 μL solutions of the reaction mixtures were pipetted in triplicates into 96 well optical reaction plates and thermal denaturation of samples were performed on real time PCR cycler (LightCycler® 480 Instrument II—Roche, Basel, Switzerland). The first derivative of the thermal denaturation curves was performed to calculate denaturing temperatures of STING-CDN complexes and STING apoproteins. The thermal shift for each CDN was calculated by subtracting the average denaturing temperature of STING apoprotein from the average denaturing temperature of STING CDN complex.
# [3] = target: T1, WT STING; assay: Differential scanning fluorimetry (DSF) with WT STING; type: binding; set-up: 8xHis (N, cleaved yes); SUMO (N, cleaved yes); made in house; host or cells: E. coli Rosetta-gami B (DE3); settings: thermal shift vs apoprotein; 150 μM CDN; truncated human WT STING 0.1 mg/ml
# Experimental: as §1, §2, §3
# Target sequence in this assay (Q86WV6 140-343 H232R): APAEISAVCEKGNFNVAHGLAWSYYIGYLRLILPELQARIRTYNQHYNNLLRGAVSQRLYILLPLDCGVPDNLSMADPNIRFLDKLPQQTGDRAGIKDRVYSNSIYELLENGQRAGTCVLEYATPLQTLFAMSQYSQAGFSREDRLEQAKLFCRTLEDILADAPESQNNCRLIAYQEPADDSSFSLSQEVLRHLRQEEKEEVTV
# [4] = test system: peripheral blood mononuclear cells (PBMC); assay: Peripheral blood mononuclear cell (PBMC) assay; type: cell-based; settings: 1 h with compounds, washed, 15 hour incubation, average of one to four donors
# Experimental: Selected compounds were tested in an in vitro peripheral blood mononuclear cell (PBMC) assay. […] Serially diluted tested compounds were added to wells in 50 μl of cultivation medium and cell were incubated with compounds for 1 h at 37° C. with 5% CO2. Plates with cells were then spun 500 g for 5 minutes and medium was removed. Cells were washed twice with the cell culture medium by the use of centrifugation and gently resuspended in 100 μl medium without compounds. After 15 hour incubation at 37° C. with 5% CO2, the cell culture medium was collected and the levels of interferon-alpha (INF-α), interferon-gamma (INF-γ) and tumor necrosis factor-alpha (TNF-α) were determined with ProcartaPlex Assays (ThermoFisher, Waltham, USA) and MAGPIX System (Merck KGaA, Darmstadt, Germany). […] Values reported are an average of runs from one to four donors.
# T2 sequence (Q86WV6 140-343 G230A/H232R/R293Q): as the sequence (Q86WV6 140-343 H232R) above, with G91A, R154Q counted along it
SMILES,EC50 [1] [nM],DSF ΔTm (° C.) AQ STING [2] [°C],DSF ΔTm (° C.) WT STING [3] [°C],ΔTm at 150 µM [2] [°C],further results
"Nc1ncnc2c1ncn2[C@@H]1C[C@@H]2COP(=O)(S)OC3C(F)[C@H](n4cnc5c(N)ncnc54)O[C@@H]3COP(=O)(S)OC2C1F (single isomer, unassigned) [Compound 102c]",10,–,–,–,–
"Nc1nc2c(ncn2[C@@H]2C[C@@H]3COP(=O)(O)OC4C(F)[C@H](n5cnc6c(N)ncnc65)O[C@@H]4COP(=O)(O)OC3C2O)c(=O)[nH]1 (single isomer, unassigned) [Compound 103]",10,16.6,7.6,–,–
"Nc1nc2c(ncn2[C@@H]2C[C@@H]3COP(=O)(O)OC4C(F)[C@H](n5cnc6c(N)ncnc65)O[C@@H]4COP(=O)(O)OC3C2O)c(=O)[nH]1 (single isomer, unassigned) [Compound 105]",1600,7.0,0.8,–,–
"Nc1nc2c(ncn2[C@@H]2O[C@@H]3COP(=O)(O)OC4C(O)[C@H](n5cnc6c(N)ncnc65)C[C@@H]4COP(=O)(O)OC3C2F)c(=O)[nH]1 (single isomer, unassigned) [Compound 109]",10,–,8.9,18.5,–
"Nc1nc2c(ncn2[C@@H]2O[C@@H]3COP(=O)(O)OC4C(O)[C@H](n5cnc6c(N)ncnc65)C[C@@H]4COP(=O)(O)OC3C2F)c(=O)[nH]1 (single isomer, unassigned) [Compound 111]",70,13.7,4.1,–,–
"Nc1ncnc2c1ncn2[C@@H]1C[C@@H]2COP(=O)(S)O[C@@H]3[C@@H](COP(=O)(S)O[C@H]2[C@H]1F)C[C@@H](n1cnc2c(N)ncnc21)[C@@H]3F (single isomer, unassigned) [Compound 128a]",10,–,–,14.8,ΔTm at 150 µM [3]: 9.6 °C
"CC(C)(C)C(=O)OCSP1(=O)OC[C@H]2O[C@@H](n3cnc4c(=O)[nH]c(N)nc43)[C@H](F)[C@@H]2OP(=O)(SCOC(=O)C(C)(C)C)OC[C@H]2C[C@@H](n3cnc4c(N)ncnc43)[C@H](F)[C@@H]2O1 (single isomer, unassigned) [Compound 150a]",–,–,–,–,"EC50 ([4]; interferon-alpha level, read-out: PBMC EC50 (μM) IFN-α): 1 µM; EC50 ([4]; interferon-gamma level, read-out: PBMC EC50 (μM) IFN-γ): 0.7 µM; EC50 ([4]; tumor necrosis factor-alpha level, read-out: PBMC EC50 (μM) TNF-α): 0.7 µM"
"COC1C2OP(=O)(O)OC[C@H]3C[C@@H](n4cnc5c(=O)[nH]c(N)nc54)C(O)C3OP(=O)(O)OC[C@H]2O[C@H]1n1cnc2c(N)ncnc21 (stereo partly drawn) [Compound 118, (6R,8R,15R,17R)-17-(2-amino-6-oxo-6,9-dihydro-1H-purin-9-yl)-8-(6-amino-9H-purin-9-yl)-3,12,18-trihydroxy-9-methoxy-2,4,7,11,13-pentaoxa-3λ^5,12λ^5-diphosphatricyclo[13.3.0.0^6,10]octadecane-3,12-dione]",–,–,–,1.5,ΔTm at 150 µM [3]: 0.5 °C

# Now from value to compound, other results behind:
EC50 [1] [nM],DSF ΔTm (° C.) AQ STING [2] [°C],DSF ΔTm (° C.) WT STING [3] [°C],ΔTm at 150 µM [2] [°C],SMILES,further results
100,–,–,14,"Nc1nc2c(ncn2[C@H]2CC3OP(=O)(S)OC[C@H]4O[C@@H](n5cnc6c(N)ncnc65)C(F)C4OP(=O)(S)OC[C@H]3C2)c(=O)[nH]1 (single isomer, unassigned) [Compound 129a]",ΔTm at 150 µM [3]: 6.4 °C
200,13.2,7.0,–,"Nc1nc2c(ncn2[C@H]2CC3OP(=O)(S)OC[C@H]4O[C@@H](n5cnc6c(N)ncnc65)C(F)C4OP(=O)(S)OC[C@H]3C2)c(=O)[nH]1 (single isomer, unassigned) [Compound 129b]",–
400,–,6.4,13.2,"Nc1nc2c(ncn2[C@@H]2C[C@@H]3COP(=O)(S)O[C@H]4[C@@H](F)[C@H](n5cnc6c(N)ncnc65)O[C@@H]4COP(=O)(S)O[C@H]3C2)c(=O)[nH]1 (single isomer, unassigned) [Compound 129c]",–
30,–,–,–,"Nc1ncnc2c1ncn2[C@@H]1C[C@@H]2COP(=O)(S)O[C@H]3C[C@H](n4cnc5c(N)ncnc54)O[C@@H]3COP(=O)(S)O[C@H]2[C@H]1F (single isomer, unassigned) [Compound 142a]",–
